Data as given in patent US6784137B2, “6-aryl-4-aminopicolinates and their use as herbicides” (Dow AgroSciences LLC, priority 2001, dated 2004).

What was measured:
[1] = system: Lambsquarter (Chenopodium album); assay: Postemergence herbicidal activity, greenhouse spray; type: in vivo; details: visual score after 2 weeks
Description: (§1) When required to ensure good germination and healthy plants, a fungicide treatment and/or other chemical or physical treatment was applied. The plants were grown for 7-21 days in a greenhouse with an approximate 15 hr photoperiod which was maintained at about 23-29° C. during the day and 22-28° C. during the night. Nutrients and water were added on a regular basis and supplemental lighting was provided with overhead metal halide 1000-Watt lamps as necessary. The plants were employed for testing when they reached the first or second true leaf stage. A weighed amount, determined by the highest rate to be tested, of each test compound was placed in a 20 mL glass vial and was dissolved in 4 mL of a 97:3 v/v (volume/volume) mixture of acetone and dimethyl sulfoxide (DMSO) to obtain concentrated stock solutions. […] The concentrated stock solutions obtained were diluted with an aqueous mixture containing acetone, water, isopropyl alcohol, DMSO, At plus 411 F crop oil concentrate, and Triton X-155 surfactant in a 48.5:39:10:1.5:1.0:0.02 v/v ratio to obtain spray solutions of known concentration. The solutions containing the highest concentration to be tested were prepared by diluting 2 mL aliquots of the stock solution with 13 mL of the mixture and lower concentrations were prepared by serial dilution of the stock solution. Approximately 1.5 mL aliquots of each solution of known concentration were sprayed evenly onto each of the test plant pots using a DeVilbiss atomizer driven by compressed air pressure of 2 to 4 psi (140 to 280 kiloPascals) to obtain thorough coverage of each plant. Control plants were sprayed in the same manner with the aqueous mixture. […] The treated plants and control plants were placed in a greenhouse as described above and watered by sub-irrigation to prevent wash-off of the test compounds.

[2] = system: Barnyardgrass (Echinochloa crus-galli); assay: as above; type: in vivo; details: visual score after 2 weeks
Description: as §1

[3] = system: Yellow nutsedge (Cyperus esculentus); assay: as above; type: in vivo; details: visual score after 2 weeks
Description: as §1

[4] = system: Cocklebur (Xanthium strumarium); assay: as above; type: in vivo; details: visual score after 2 weeks
Description: as §1

melting point | Compound | other results
 | COC(=O)c1nc(-c2ccccc2F)cc(N)c1Cl [Compound 33, Methyl 4-amino-3-chloro-6-(2-fluorophenyl)pyridine-2-carboxylate] | pest or weed control at 500 ppm ([1]; Chenopodium album, post-emergence, 336 h, Table 1, rate 500 ppm, read-out: Post-emergent % control CHEAL): 100%; pest or weed control at 500 ppm ([2]; Echinochloa crus-galli, post-emergence, 336 h, Table 1, rate 500 ppm, read-out: Post-emergent % control ECHCG): 30%; pest or weed control at 500 ppm ([3]; Cyperus, post-emergence, 336 h, Table 1, rate 500 ppm, read-out: Post-emergent % control CYPES): 10%; pest or weed control at 500 ppm ([4]; Xanthium strumarium, post-emergence, 336 h, Table 1, rate 500 ppm, 0 no injury, 100 complete kill, read-out: Post-emergent % control XANST): 100%
 | COC(=O)c1nc(-c2ccc(Cl)s2)cc(N)c1Cl [Compound 98, Methyl 4-amino-3-chloro-6-(5-chloro-2-thienyl)pyridine-2-carboxylate] | pest or weed control at 125 ppm ([1]; Chenopodium album, post-emergence, 336 h, Table 1, rate 125 ppm, read-out: Post-emergent % control CHEAL): 90%; pest or weed control at 125 ppm ([2]; Echinochloa crus-galli, post-emergence, 336 h, Table 1, rate 125 ppm, read-out: Post-emergent % control ECHCG): 50%; pest or weed control at 125 ppm ([3]; Cyperus, post-emergence, 336 h, Table 1, rate 125 ppm, read-out: Post-emergent % control CYPES): 70%; pest or weed control at 125 ppm ([4]; Xanthium strumarium, post-emergence, 336 h, Table 1, rate 125 ppm, read-out: Post-emergent % control XANST): 90%
 | COC(=O)c1nc(-c2ccc(C)nn2)cc(N)c1Cl [Compound 121, Methyl 4-amino-3-chloro-6-(3-(6-methyl)pyridazinyl)pyridine-2-carboxylate] | Post-emergent % control CHEAL ([1]; Table 2, rate 125 ppm): 90%; Post-emergent % control ECHCG ([2]; Table 2, rate 125 ppm): 80%; Post-emergent % control CYPES ([3]; Table 2, rate 125 ppm): 80%; Post-emergent % control XANST ([4]; Table 2, rate 125 ppm): 100%
182 to 183 °C | COc1ccc(-c2cc(N)c(Cl)c(C(=O)O)n2)cc1OC [Compound 185, 4-Amino-3-chloro-6-(3,4-dimethoxyphenyl)pyridine-2-carboxylic acid] | 
182 to 183 °C | COc1cc(Cl)ccc1-c1cc(N)c(Cl)c(C(=O)O)n1 [Compound 186, 4-Amino-3-chloro-6-(4-chloro-2-methoxyphenyl)pyridine-2-carboxylic acid] | 
226 to 227 °C | Nc1cc(-c2ccc3c(c2Cl)OCO3)nc(C(=O)O)c1Cl [Compound 187, 4-Amino-3-chloro-6-(2-chloro-3,4-methylenedioxyphenyl)pyridine-2-carboxylic acid] | 
204 to 205 °C | Nc1cc(-c2ccc3c(c2)CCC3)nc(C(=O)O)c1Cl [Compound 188, 4-Amino-3-chloro-6-(5-indanyl)pyridine-2-carboxylic acid] | 
71 to 72 °C | Cc1ccc(-c2cc(N)c(Cl)c(C(=O)O)n2)c(Cl)c1 [Compound 190, 4-Amino-3-chloro-6-(2-chloro-4-methylphenyl)pyridine-2-carboxylic acid] | 
173 to 175 °C | Cc1cc(F)c(-c2cc(N)c(Cl)c(C(=O)O)n2)cc1Cl [Compound 192, 4-Amino-3-chloro-6-(5-chloro-2-fluoro-4-methylphenyl)pyridine-2-carboxylic acid] | 
131 °C | COc1ccc(-c2cc(N)c(Cl)c(C(=O)O)n2)cc1C [Compound 193, 4-Amino-3-chloro-6-(4-methoxy-3-methylphenyl)pyridine-2-carboxylic acid] | 
185 to 186 °C | COc1ccc(OC)c(-c2cc(N)c(Cl)c(C(=O)O)n2)c1 [Compound 194, 4-Amino-3-chloro-6-(2,5-dimethoxyphenyl)pyridine-2-carboxylic acid] | 
162 °C | COCc1cc(-c2cc(N)c(Cl)c(C(=O)O)n2)ccc1Cl [Compound 195, 4-Amino-3-chloro-6-(4-chloro-3-methoxymethylphenyl)pyridine-2-carboxylic acid] | 
218 to 220 °C | Nc1cc(-c2ccc3c(c2)CCO3)nc(C(=O)O)c1Cl [Compound 201, 4-Amino-3-chloro-6-(2,3-dihydro-5-benzofuranyl)pyridine-2-carboxylic acid] | 
144 °C | Nc1c(Cl)c(C(=O)O)nc(-c2cccs2)c1Cl [Compound 208, 4-Amino-3,5-dichloro-6-(2-thienyl)pyridine-2-carboxylic acid] | 
155 °C (dec.) | Nc1cc(-c2ccncc2)nc(C(=O)O)c1Cl [Compound 209, 4-Amino-3-chloro-6-(4-pyridinyl)pyridine-2-carboxylic acid] | 
110 °C (dec.) | COc1ccc(-c2cc(N)c(Cl)c(C(=O)O)n2)cn1 [Compound 213, 4-Amino-3-chloro-6-(6-methoxy-3-pyridinyl)pyridine-2-carboxylic acid] | 
185 °C (dec.) | Nc1cc(-c2ccccn2)nc(C(=O)O)c1Cl [Compound 214, 4-Amino-3-chloro-6-(2-pyridinyl)pyridine-2-carboxylic acid] | 
184 °C | Nc1cc(-c2ccsc2)nc(C(=O)O)c1Cl [Compound 216, 4-Amino-3-chloro-6-(3-thienyl)pyridine-2-carboxylic acid] | 

melting point | Compound | other results
175 to 176 °C | Cc1ccc(-c2cc(N)c(Cl)c(C(=O)O)n2)s1 [Compound 218, 4-Amino-3-chloro-6-(5-methyl-2-thienyl)pyridine-2-carboxylic acid] | 
172 to 173 °C | Nc1cc(-c2cnccn2)nc(C(=O)O)c1Cl [Compound 220, 4-Amino-3-chloro-6-(2-pyrazinyl)pyridine-2-carboxylic acid] | 
125 °C (dec.) | Nc1c(F)c(-c2ccc(Cl)nc2)nc(C(=O)O)c1Cl [Compound 221, 4-Amino-3-chloro-5-fluoro-6-(6-chloro-3-pyridinyl)pyridine-2-carboxylic acid] | 
184 to 185 °C | Nc1cc(-c2nccs2)nc(C(=O)O)c1Cl [Compound 222, 4-Amino-3-chloro-6-(2-thiazolyl)pyridine-2-carboxylic acid] | 
230 to 232 °C | Cn1nccc1-c1cc(N)c(Cl)c(C(=O)O)n1 [Compound 223, 4-Amino-3-chloro-6-(1-methyl-1H-pyrazol-5-yl)pyridine-2-carboxylic acid] | 
262 °C (dec.) | Nc1cc(-c2nc3ccccc3o2)nc(C(=O)O)c1Cl [Compound 226, 4-Amino-3-chloro-6-(2-benzoxazolyl)pyridine-2-carboxylic acid] | 
180 °C | Nc1cc(-c2cncnc2)nc(C(=O)O)c1Cl [Compound 228, 4-Amino-3-chloro-6-(5-pyrimidinyl)pyridine-2-carboxylic acid] | 
283 °C | Nc1cc(-c2nc3ccccc3s2)nc(C(=O)O)c1Cl [Compound 230, 4-Amino-3-chloro-6-(2-benzothiazolyl)pyridine-2-carboxylic acid] | 
166 to 170 °C | Nc1cc(-c2cnco2)nc(C(=O)O)c1Cl [Compound 231, 4-Amino-3-chloro-6-(5-oxazolyl)pyridine-2-carboxylic acid] | 
153 °C | COc1ncc(-c2cc(N)c(Cl)c(C(=O)O)n2)cn1 [Compound 239, 4-Amino-3-chloro-6-(2-methoxy-5-pyrimidinyl)pyridine-2-carboxylic acid] | 
175 to 177 °C | Nc1c(Cl)c(C(=O)O)nc(-c2cncs2)c1Cl [Compound 241, 4-Amino-3,5-dichloro-6-(5-thiazolyl)pyridine-2-carboxylic acid] | 
138 to 139 °C | COC(=O)c1nc(-c2ccc(CO)cc2)cc(N)c1Cl [Compound 242, Methyl 4-amino-3-chloro-6-(4-hydroxymethylphenyl)pyridine-2-carboxylate] | 
95 to 97 °C | COC(=O)c1nc(-c2ccc(CF)cc2)cc(N)c1Cl [Compound 243, methyl 4-amino-3-chloro-6-(4-fluoromethylphenyl)pyridine-2-carboxylate] | 
62 to 63 °C | CCCCCCCCCCOC(=O)c1nc(-c2ccc(Cl)cc2)c(F)c(N)c1Cl [Compound 244, Decyl 4-amino-3-chloro-5-fluoro-6-(4-chlorophenyl)pyridine-2-carboxylate] | 
60 to 62 °C | CCCCOC(=O)c1nc(-c2ccc(C)cc2)cc(N)c1Cl [Compound 249, Butyl 4-amino-3-chloro-6-(4-methylphenyl)pyridine-2-carboxylate] | 
88 to 89 °C | CCOC(=O)c1nc(-c2ccc(Cl)cc2)c(F)c(N)c1Cl [Compound 252, Ethyl 4-amino-3-chloro-5-fluoro-6-(4-chlorophenyl)pyridine-2-carboxylate] | 
129 to 130 °C | CCOC(=O)c1nc(-c2ccc(C)cc2)cc(N)c1Cl [Compound 263, Ethyl 4-amino-3-chloro-6-(4-methylphenyl)pyridine-2-carboxylate] | 

Compound | melting point | other results
CCCCOCCOC(=O)c1nc(-c2ccc(Cl)cc2)c(F)c(N)c1Cl [Compound 245, 2-Butoxyethyl 4-amino-3-chloro-5-fluoro-6-(4-chlorophenyl)pyridine-2-carboxylate] | 103 to 104 °C | 
